The text below walks through data of patent US20080319084A1, “Wrinkling Prevention or Remedy with Adam Activity Inhibiting Substance” (Shiseido Company, Ltd., priority 2004, published 2008).

The subject of assay [1] is ADAM enzyme. The assay is described as follows: Screening of ADAM activity inhibiting substance: TPA-induced HB-EGF-AP release from HB-EGF-AP/HT-1080 cells. The settings on record: 60 nM TPA, 60 minutes. In kind it is cell-based, human. The protocol: Firstly, the screening of a compound having the ADAM enzyme inhibiting activity was performed by use of HB-EGF-AP/HT-1080 (human fibrosarcoma-derived cultured cells HT-1080 having been modified so as to achieve forcible expression of a fusion protein, in which heat-resistant alkaline phosphatase (AP) has been added to an N terminal of human HB-EGF). On the surfaces of the cells of the used cell strain HB-EGF-AP/HT-1080, the HB-EGF entire length molecule is expressed in the form fused with the alkaline phosphatase. In cases where the cells are excited by a phorbol ester, the ADAM enzyme on the cell membrane surfaces is activated to cut the HB-EGF molecule. Since alkaline phosphatase has been bound to HB-EGF having been cut into the released form, in cases where the alkaline phosphatase activity in a culture supernatant is measured, the ADAM enzyme inhibiting activity of the compound is capable of being measured indirectly.
Specifically, HB-EGF-AP/HT-1080, in which the number of cells had been adjusted at 2.0×10^5 cells/ml, was sowed at a rate of 0.2 ml/well to a 96-well culture micro-plate and was cultured overnight at a temperature of 37° C. […] After the incubation was performed at the room temperature for two hours under a light blocking condition, the absorbance in each well at the wavelength of 405 nm was measured again. […]

For assay [2], the system named is finely wrinkled mouse model. The assay is described as follows: Evaluation of anti-wrinkling effects of ADAM activity inhibiting substances in finely wrinkled mouse model (visual score, wrinkle area). In kind it is in vivo, hairless mouse (HR-1). The settings on record: for mean value of the wrinkle score (visual judgment, 0 no wrinkle to 3 deep wrinkles): after four weeks, 1 mM TAPI-1 or 1% 4-methoxybenzohydroxamic acid in 50% aqueous ethanol, 100 μl after each tape stripping, vehicle 1.17; for mean value of the wrinkle area (%) versus vehicle: replica analysis after four weeks, 1 mM TAPI-1 or 1% 4-methoxybenzohydroxamic acid. The protocol:
The anti-wrinkling effects of TAPI-1 and 4-methoxybenzohydroxamic acid acting as the ADAM activity inhibiting substances were studied by use of the finely wrinkled mouse model.
Specifically, on the skin on the left side of the dorsal section of a hairless mouse (HR-1, male, six weeks of age, supplied by Hoshino Experimental Animals), the tape stripping was performed in three stages per week and was continued for four weeks such that the transepidermal water loss (TEWL) (as measured by use of a water evaporation quantity measuring apparatus MEECO, supplied by Meeco Co., U.S.A) might fall within the range of 4 mg/cm^2/h to 8 mg/cm^2/h. Immediately after each stage of the tape stripping processing had been performed, 100 μl of TAPI-1 or 4-methoxybenzohydroxamic acid was applied to the skin on the left side of the dorsal section of the mouse. At this time, 4-methoxybenzohydroxamic acid was dissolved in a 50% aqueous ethanol solution such that the concentration of 4-methoxybenzohydroxamic acid might become equal to 1%, and 4-methoxybenzohydroxamic acid was used in the form of the resulting solution. Also, TAPI-1 (supplied by Peptide Research Institute) was evaluated at a concentration of 1 mM. Further, as a negative control, a 50% aqueous ethanol solution (i.e., a vehicle) was applied in the same manner as that described above.
The state of occurrence of wrinkles after a period of four weeks had elapsed was expressed by scores with visual judgment. The state of occurrence of wrinkles was evaluated with the rating described below. • 0: No wrinkle • 1: shallow wrinkles • 2: clear wrinkles • 3: Deep wrinkles The state of occurrence of wrinkles was expressed by the scores at intervals of 0.5. A larger score represents deeper wrinkles. The mean value and the standard deviation of each group were calculated. The results illustrated in FIG. 5 were obtained.
Thereafter, the replicas of the dorsal section of the mouse were analyzed by use of a wrinkle analyzing apparatus (supplied by Hamano Engineering), and the wrinkle area (%) was calculated. A low wrinkle area percentage represents that the wrinkle formation has been suppressed. The results illustrated in FIG. 6 were obtained.

The subject of assay [3] is finely wrinkled mouse model. The assay is described as follows: Anti-wrinkling effects of medicine application on finely wrinkled mouse model (tape stripping). In kind it is in vivo, hairless mouse (HR-1). Further details: key to Wrinkling suppressing effects / Epidermal hyperplasia suppressing effects / Dermal hyperplasia suppressing effects: O: Remedied.; Δ: No alteration was found.; x: Aggravated. The settings on record: for Dermal hyperplasia suppressing effects / Epidermal hyperplasia suppressing effects / Wrinkling suppressing effects: 100 μl applied to skin after each tape stripping, 2 mM TAPI-1, 1% CGS27023A, 10% glycerol, 1% oleic acid; for Dermal hyperplasia suppressing effects / Epidermal hyperplasia suppressing effects: four weeks, HE-stained slices; for Wrinkling suppressing effects: up to four weeks; for hyperplasia of the epidermis and the dermis (in words) / wrinkle formation (in words): finely wrinkled mouse model, topical application. As for the experimental part: It is considered that, in cases where the skin barrier is weakened or disrupted by various primary factors, such as a decrease in sebum and face washing, and water evaporation from the skin surface increases, the skin dries, and the fine wrinkles are formed. Therefore, tape stripping was repeatedly performed on the skin of a hairless mouse, the stratum corneum of thus peeled off, and the skin barrier was broken. In this manner, a finely wrinkled mouse model was prepared. Specifically, the tape stripping with cellophane adhesive tapes was performed on the skin on the left side of the dorsal section of a hairless mouse (HR-1, male, six weeks of age, supplied by Hoshino Experimental Animals) with the number of times of the tape stripping being adjusted such that a transepidermal water loss (TEWL) (as measured by use of a water evaporation quantity measuring apparatus MEECO, supplied by Meeco Co., U.S.A) might fall within the range of 4 mg/cm^2/h to 6 mg/cm^2/h. Ordinarily, at the initial stage, the tape stripping was iterated approximately four times. At the final stage, the tape stripping was iterated seven to eight times. The tape stripping was performed in three stages per week and was continued for four weeks. The right side of the dorsal section of the hairless mouse was left to stand as a non-treatment area. Studies were made with respect to the anti-wrinkling effects of the application of various medicines, which were listed in Table 2 below, on the finely wrinkled mouse model. Specifically, the tape stripping was performed on a hairless mouse in the manner described above. After each tape stripping processing, 100 μl of each of the medicines listed in Table 2 was applied to the skin of the hairless mouse. FIG. 4A is a diagram showing replica images of skins having been applied with different medicines in the finely wrinkled mouse model, which replica images have been taken at stages one week, two weeks, and four weeks after the application of each of the medicines. FIG. 4B is a diagram showing microscopic photographs of skin tissue slices of the skins at the stage four weeks after the application of each of the medicines, which skin tissue slices have been stained with HE (hematoxylin-eosin).

Assay [4] deals with Photo-aged mouse model. The assay is described as follows: Wrinkle formation in Photo-aged mouse model (UV light irradiation). In kind it is in vivo. As for the experimental part:
FIG. 2A is a diagram showing replica images of the mouse skin having been subjected to the tape stripping in the manner described above. FIG. 2B is a diagram showing microscopic photographs of a skin tissue slice of the mouse skin, which skin tissue slice has been stained with HE (hematoxylin-eosin). As illustrated in the replica images (FIG. 2A), skin ditches became deep at the stage 24 hours (24 h) after the beginning of the tape stripping and at the stage 48 hours (48 h) after the beginning of the tape stripping. At the stage one week (1 W) after the beginning of the tape stripping, the directions of the skin ditches coincided with predetermined directions. At the stage four weeks (4 W) after the beginning of the tape stripping, a wrinkle-like appearance occurred. […] At the stage two weeks (2 W) after the beginning of the tape stripping, the epidermal hyperplasia was kept. Table 1 shown below lists morphological alterations, histological alterations, and the like, of the finely wrinkled mouse model having been prepared in the manner described above together with the morphological alterations, histological alterations, and the like, of a Photo-aged mouse model having been prepared with UV light irradiation (for 10 weeks).

SMILES strings stand for the structures.

Regarding `COc1ccc(C(=O)NO)cc1` [4-Methoxybenzohydroxamic acid], in assay [1] (concentration 10 μg/ml), the “Inhibition rate (%) of HB-EGF release” value was 14.8%. Besides, the “Inhibition rate (%) of HB-EGF release” value in assay [1] (concentration 50 μg/ml) turned out to be 55.8%. In assay [2], the “mean value of the wrinkle score (visual judgment, 0 no wrinkle to 3 deep wrinkles)” value is on record as 0.91 and the “mean value of the wrinkle area (%) versus vehicle” value was “significantly lower”.

In the case of `COc1ccc(S(=O)(=O)N(Cc2cccnc2)[C@@H](C(=O)NO)C(C)C)cc1` [CGS27023A], in assay [3], the “Dermal hyperplasia suppressing effects” value is recorded as “Δ”; the “Epidermal hyperplasia suppressing effects” value is “Δ”; the Wrinkling suppressing effects entry is “Δ”; the “hyperplasia of the epidermis and the dermis (in words)” value (“hyperplasia … (in words)” for short) is “not capable of suppressing the hyperplasia of the epidermis and the dermis”. For the same compound, the “wrinkle formation (in words)” value in assay [3] is given as “not capable of suppressing the wrinkle formation at all”. In addition, the “wrinkle formation preventing effects (in words)” value in assay [4] was “exhibited the wrinkle formation preventing effects”.

Turning to `OCC(O)CO` [Glycerol], in assay [3], the “Dermal hyperplasia suppressing effects” value is “Δ”; the “Epidermal hyperplasia suppressing effects” value is reported as “x”; the Wrinkling suppressing effects result was “Δ”; the “hyperplasia … (in words)” value is “not capable of suppressing the hyperplasia of the epidermis and the dermis”. The “wrinkle formation (in words)” value in assay [3] is reported as “not capable of suppressing the wrinkle formation at all”.

For `CCCCCCCC/C=C\CCCCCCCC(=O)O` [Oleic acid], in assay [3], the “Dermal hyperplasia suppressing effects” value is listed as “x”; the “Epidermal hyperplasia suppressing effects” value was “x”; the Wrinkling suppressing effects result was “x”; the “hyperplasia … (in words)” value is “accelerated the hyperplasia of the epidermis and the dermis”. The “wrinkle formation (in words)” value in assay [3] is “promoted the wrinkle formation”.

As for `CC(C)C[C@H](CC(=O)NO)C(=O)N[C@@H](Cc1ccc2ccccc2c1)C(=O)N[C@@H](C)C(=O)NCCN` [TAPI-1, N—(R)-(2-(Hydroxyaminocarbonyl)methyl)-4-Methylpentanoyl-L-Nal-L-Alanine 2-Aminoethyl amide], in assay [3], the “Dermal hyperplasia suppressing effects” value is recorded as “∘”; the “Epidermal hyperplasia suppressing effects” value is on record as “∘”; the Wrinkling suppressing effects entry is given as “∘”; the “hyperplasia … (in words)” value is “markedly suppressed the hyperplasia of the epidermis and the dermis”. Also, the “wrinkle formation (in words)” value in assay [3] is reported as “suppressed the wrinkle formation”. Also, in assay [2], the “mean value of the wrinkle score (visual judgment, 0 no wrinkle to 3 deep wrinkles)” value was 0.43 and the “mean value of the wrinkle area (%) versus vehicle” value is listed as “significantly lower”.
